Results published in ChEMBL document CHEMBL4483862, “Open-source discovery of chemical leads for next-generation chemoprotective antimalarials” (2018).

Test system: Plasmodium berghei
Experiment: Luciferase/luciferin-expressing antifolate-resistant parasites were used to infect a culture of HepG2 cells that were pre-incubated with compounds. Infected hepatocytes emit light due to the luciferase reaction. Assay results are presented as the percent inhibition of light emission compared to control. […]
Format: functional
Conditions: sporozoite; for IC90: read-out: LUCIFERASE INFECTION ASSAY - IC90
[1] = read-out: LUCIFERASE INFECTION ASSAY - IC50

SMILES | IC90 | IC50 [1] | other results
CC(Sc1nccn1-c1cccc(F)c1)C(=O)Nc1ccc(N2CCOCC2)cc1 (stereo not drawn) | > 10 µM |  | IC50 (FFLUC_HILL_SLOPE 11.8, FFLUC_R_SQUARED 0.0999, read-out: LUCIFERASE INFECTION ASSAY - IC50): > 10 µM
O=C(Nc1ccc(C(=O)N(CCO)Cc2cccc(OCc3ccccc3Cl)c2)cc1)C1CC1 | > 10 µM |  | IC50 (PBLUC_HILL_SLOPE 3.35, PBLUC_R_SQUARED 0.615, read-out: LUCIFERASE INFECTION ASSAY - IC50): 6.85 µM
COc1ccc(CNC(N)=O)cc1 | > 18.3 µM | > 18.3 µM | 
Nc1ccc(-c2cn3c(-c4cccc(OC(F)(F)F)c4)cnc3cn2)cn1 | 4.23 µM |  | IC50 (PBLUC_HILL_SLOPE 9.99, PBLUC_R_SQUARED 0.381, read-out: LUCIFERASE INFECTION ASSAY - IC50): 3.39 µM
CC(OC(=O)c1ccccc1NS(=O)(=O)c1ccc2c(c1)OCCO2)C(=O)Nc1ccc([N+](=O)[O-])cc1C(F)(F)F (stereo not drawn) | > 10 µM | > 10 µM | 
CC(C)OC(=O)Nc1cc(Cl)cc(Cl)c1 | > 13.3 µM | > 13.3 µM | 
Cc1ccc(Oc2ccc(NC(=O)CCc3cccnc3)cc2)cc1 | 9.55 µM |  | IC50 (PBLUC_HILL_SLOPE 16.6, PBLUC_R_SQUARED 0.382, read-out: LUCIFERASE INFECTION ASSAY - IC50): 8.37 µM
CCN(CC)C(CNc1ccc([N+](=O)[O-])cn1)Cc1ccccc1 (stereo not drawn) | > 10 µM | 7 µM | 
CN(CC(=O)Nc1ccc(OC(F)(F)F)cc1)Cc1cc(=O)n2c([nH]c3ccccc32)c1C#N | > 10 µM |  | IC50 (HEPG2TOX_HILL_SLOPE 2.12, HEPG2TOX_R_SQUARED 0.883, PBLUC_HILL_SLOPE 1.9, PBLUC_R_SQUARED 0.564, read-out: LUCIFERASE INFECTION ASSAY - IC50): 4.93 µM
OCc1ccc(-c2cnc3cnc(-c4ccco4)cn23)cc1 | > 11.3 µM | > 11.3 µM | 
c1ccc(-c2cn3nc(NCc4ccccc4CN4CCOCC4)sc3n2)cc1 | > 10 µM | 1.28 µM | 
Cc1sc2ncnc(SCC(=O)N3N=C4/C(=C/c5ccccc5)CCCC4C3c3ccccc3)c2c1C (stereo not drawn) | > 10 µM |  | IC50 (HEPG2TOX_HILL_SLOPE 0.257, HEPG2TOX_R_SQUARED 0.0474, read-out: LUCIFERASE INFECTION ASSAY - IC50): > 10 µM
CC(C)(C)c1ccc(-c2cnc3cnc(-c4ccc(C(=O)N5CCOCC5)cc4)cn23)cc1 | > 7.49 µM |  | IC50 (PBLUC_HILL_SLOPE 4.5, PBLUC_R_SQUARED 0.623, read-out: LUCIFERASE INFECTION ASSAY - IC50): 4.7 µM
COc1ccccc1NC(=S)NC(c1ccccc1)c1ccccc1 | > 9.47 µM | > 9.47 µM | 
COc1cc(C2NCC(c3ccccc3Cl)c3c2[nH]c2ccccc32)ccc1OCc1cccc(C(F)(F)F)c1 (stereo not drawn) | > 10 µM |  | IC50 (FFLUC_HILL_SLOPE 97, FFLUC_R_SQUARED 0.0371, HEPG2TOX_HILL_SLOPE 1.2, HEPG2TOX_R_SQUARED 0.293, PBLUC_HILL_SLOPE 8.25, PBLUC_R_SQUARED 0.22, read-out: LUCIFERASE INFECTION ASSAY - IC50): 8.46 µM
CC(C)(C)c1cc(C(=O)Nc2nc(C(N)CCc3ccccc3)cs2)n(Cc2ccccc2)n1 (stereo not drawn) | > 6.97 µM | > 6.97 µM | 
Cc1cc(C2(c3cc(C)n(-c4ccccc4)c3C)CCC(C)CC2)c(C)n1-c1ccccc1 | > 10 µM |  | IC50 (FFLUC_HILL_SLOPE 2.77, FFLUC_R_SQUARED 0.531, read-out: LUCIFERASE INFECTION ASSAY - IC50): > 10 µM
O=C(/C=C/c1ccc(Cl)c([N+](=O)[O-])c1)c1ccc(NC2=NCCCS2)cc1 | 9.95 µM |  | IC50 (HEPG2TOX_HILL_SLOPE 9.82, HEPG2TOX_R_SQUARED 0.995, PBLUC_HILL_SLOPE 5.88, PBLUC_R_SQUARED 0.401, read-out: LUCIFERASE INFECTION ASSAY - IC50): 6.85 µM
CC(C)(C)C(=O)/C=c1\s/c(=C\c2ccsc2)c(=O)n1CC(=O)N1CCc2ccccc21 | > 10 µM | > 10 µM | 
Cc1nc(NCCNc2cnccn2)c2c(-c3cccs3)csc2n1 | 5.98 µM |  | IC50 (HEPG2TOX_HILL_SLOPE 0.714, HEPG2TOX_R_SQUARED 0.963, PBLUC_HILL_SLOPE 3.5, PBLUC_R_SQUARED 0.488, read-out: LUCIFERASE INFECTION ASSAY - IC50): 3.19 µM
Cc1cccc(Cn2nc(C(C)(C)C)cc2-c2nnc(SCc3c(F)cccc3Cl)n2C2CCCCC2)c1 | > 5.98 µM |  | IC50 (FFLUC_HILL_SLOPE 2.05, FFLUC_R_SQUARED 0.435, PBLUC_HILL_SLOPE 2, PBLUC_R_SQUARED 0.623, read-out: LUCIFERASE INFECTION ASSAY - IC50): 4.03 µM
COc1cc(OC)c(OC)cc1CNC(=O)c1ccc2[nH]c3c(c2c1)CCCC3 | > 10 µM |  | IC50 (PBLUC_HILL_SLOPE 2.72, PBLUC_R_SQUARED 0.276, read-out: LUCIFERASE INFECTION ASSAY - IC50): 9.2 µM

SMILES | IC90 | IC50 [1] | other results
COCCN(Cc1nc(=O)c2ccccc2[nH]1)C(=O)C1=NN(c2ccccc2)C(c2ccccc2)C1 (stereo not drawn) | > 10 µM | > 10 µM | 
CCOc1cc(/C=C/C(=O)c2ccc(F)c(Br)c2)cc(Cl)c1OCC(=O)N(C)C | > 10 µM | > 10 µM | 
CCOC(=O)C1=C(C)N(c2ccc(Cl)cc2)C(=O)NC1c1c(F)cccc1Cl (stereo not drawn) | > 10 µM |  | IC50 (FFLUC_HILL_SLOPE 0.633, FFLUC_R_SQUARED 0.184, HEPG2TOX_HILL_SLOPE 1.11, HEPG2TOX_R_SQUARED 0.991, PBLUC_HILL_SLOPE 1.36, PBLUC_R_SQUARED 0.55, read-out: LUCIFERASE INFECTION ASSAY - IC50): 3.38 µM
Cc1ccc(NC(=S)N/N=C2\C(=O)Nc3ccc([N+](=O)[O-])cc32)cc1 | > 10 µM |  | IC50 (PBLUC_HILL_SLOPE 14.8, PBLUC_R_SQUARED 0.511, read-out: LUCIFERASE INFECTION ASSAY - IC50): 8.89 µM
COc1ccc2c(C(=O)N/N=C/c3cc(Br)c4ccccc4c3O)cccc2c1 | 3.64 µM |  | IC50 (FFLUC_HILL_SLOPE 0.529, FFLUC_R_SQUARED 0.712, HEPG2TOX_HILL_SLOPE 1.8, HEPG2TOX_R_SQUARED 0.756, PBLUC_HILL_SLOPE 12.3, PBLUC_R_SQUARED 0.402, read-out: LUCIFERASE INFECTION ASSAY - IC50): 3.05 µM
COc1cc([N+](=O)[O-])ccc1NC(=O)CN1CCc2ccccc2C1 | > 10 µM | > 10 µM | 
O=C(Nc1ccc(OC(F)(F)F)cc1)c1c(-c2ccccc2)nnc2ccccc12 | > 8.06 µM |  | IC50 (FFLUC_HILL_SLOPE 2.82, FFLUC_R_SQUARED 0.654, HEPG2TOX_HILL_SLOPE 0.161, HEPG2TOX_R_SQUARED 0.349, PBLUC_HILL_SLOPE 0.343, PBLUC_R_SQUARED 0.11, read-out: LUCIFERASE INFECTION ASSAY - IC50): > 8.06 µM
COc1ccc(CN2CCN(C(=O)c3ccc(-n4cccn4)cc3)CC2)cc1F | > 10 µM |  | IC50 (HEPG2TOX_HILL_SLOPE 2.97, HEPG2TOX_R_SQUARED 0.899, PBLUC_HILL_SLOPE 2, PBLUC_R_SQUARED 0.568, read-out: LUCIFERASE INFECTION ASSAY - IC50): 3.44 µM
S=c1[nH]c2ccccc2n1C1CCCCC1 | > 10 µM | > 10 µM | 
CC(C)c1cccc(C(C)C)c1NC(=O)COc1ccc(CCO)cc1-n1nc2ccccc2n1 | 6.85 µM |  | IC50 (FFLUC_HILL_SLOPE 16.3, FFLUC_R_SQUARED 0.284, PBLUC_HILL_SLOPE 3.54, PBLUC_R_SQUARED 0.756, read-out: LUCIFERASE INFECTION ASSAY - IC50): 3.68 µM
CCCc1noc(CCC(=O)Nc2nc3cc4c(cc3s2)OCCO4)n1 | > 10 µM | > 10 µM | 
Fc1cccc(-c2cnc3cnc(-c4ccncc4)cn23)c1 | > 11.4 µM |  | IC50 (HEPG2TOX_HILL_SLOPE 3.65, HEPG2TOX_R_SQUARED 0.679, PBLUC_HILL_SLOPE 2.42, PBLUC_R_SQUARED 0.708, read-out: LUCIFERASE INFECTION ASSAY - IC50): 5.64 µM
CC1CCc2sc(C(=O)Nc3cccc4c3C(=O)NC4)cc2C1 (stereo not drawn) | 4.22 µM | 3.61 µM | 
CCN1CCN(C(=O)C23CC4CC(C2)CC(c2ccc(C)cc2)(C4)C3)CC1 | > 10 µM | > 10 µM | 
CC(=O)NCCCc1ccc(C(=O)Cn2cc(C(F)(F)F)ccc2=O)cc1 | > 10 µM | > 10 µM | 
Cc1cc(NCCN(C)C)n2nc(C(F)(F)F)c(-c3ccccc3)c2n1 | > 9.08 µM |  | IC50 (PBLUC_HILL_SLOPE 2.75, PBLUC_R_SQUARED 0.0665, read-out: LUCIFERASE INFECTION ASSAY - IC50): 5.68 µM
O=C1N=C(N2CCCCC2)S/C1=C(/C=C(CC(=O)c1ccccc1)c1ccccc1)c1ccccc1 | > 6.7 µM | > 6.7 µM | 
O=C(/C(=N/Nc1ccc(Cl)cc1Cl)C(=O)C(F)(F)F)c1cccs1 | 5.87 µM |  | IC50 (FFLUC_HILL_SLOPE 16.5, FFLUC_R_SQUARED 0.242, PBLUC_HILL_SLOPE 1.77, PBLUC_R_SQUARED 0.602, read-out: LUCIFERASE INFECTION ASSAY - IC50): 1.7 µM
Cn1c(SCC(=O)Nc2cccc(C(=O)O)c2)nnc1-c1cnccn1 | > 8.91 µM | > 8.91 µM | 
N#CN=c1nc(/C=C/c2ccc(Br)cc2)[nH]c(-c2ccccc2O)n1 | 5.46 µM |  | IC50 (FFLUC_HILL_SLOPE 1.52, FFLUC_R_SQUARED 0.887, PBLUC_HILL_SLOPE 1.8, PBLUC_R_SQUARED 0.711, read-out: LUCIFERASE INFECTION ASSAY - IC50): 1.61 µM
CN(C)CCNC(=O)c1cccc(-c2cnc3ccc(-c4cccc(NS(C)(=O)=O)c4)nn23)c1 | 1.3 µM |  | IC50 (HEPG2TOX_HILL_SLOPE 1.31, HEPG2TOX_R_SQUARED 0.978, PBLUC_HILL_SLOPE 2.06, PBLUC_R_SQUARED 0.888, read-out: LUCIFERASE INFECTION ASSAY - IC50): 0.447 µM
Cc1nn(-c2ccccc2Cl)c2sc(C(=O)Nc3ccc(-c4nnc5n4CCCCC5)cc3)cc12 | > 10 µM | > 10 µM | 
